Assay results: PMC5913645, “Methyl phenlactonoates are efficient strigolactone analogs with simple structure” (Journal of Experimental Botany, 2017)
Entries after “also recorded” stand apart in the source; their conditions may differ.

What was measured:
[1] = test system: rice d10 mutant; assay: Rice micro tillering bioassay, d10 mutant; format: in vivo; settings: for EC50: Oryza sativa, read-out: EC50 for tillering inhibition of the rice d10 mutant
Method: Rice seeds (WT, d3, d10) were surface-sterilized by washing with 70% ethanol for 1 min and then with 2.5% sodium hypochlorite for 15 min. Seeds were then rinsed thoroughly with sterile MilliQ water and incubated in water for 2 d at 30 °C in the dark. Pre-germinated seeds were transferred to filter papers containing half-strength MS medium in 90 mm Petri dishes and incubated at 30 °C under fluorescent white light (130–180 μmol m^−2 s^−1) for 1 week. Seven-day-old seedlings were transferred to 50 ml falcon tubes (one seedling per tube) containing modified half-strength Hoagland nutrient solution and grown in greenhouse. Plants were treated with MPs at 2.5 μM to 2.5 × 10^–7 μM, using GR24 as positive control. The compounds were applied six times, twice a week. Number of tillers per plant, plant height and fresh biomass were measured at final harvest.
Statistical analyses were carried out using the statistical software package R (version 3.2.2). Dose–response curves and half-maximum effective concentrations (EC50) were calculated to determine optimum amount of MPs. The synthetic strigolactone analog GR24 was used as reference to estimate efficacy of selected compounds. EC50 and estimated response were calculated using the drc package (https://cran.r-project.org/web/packages/drc/) with a four parameter logistic curve (dose–response curve) ([Ritz and Streibig, 2005]).

[2] = target: T1, OsD14 (Oryza sativa subsp. japonica, UniProt Q10QA5); assay: In vitro hydrolysis assay, OsD14; format: biochemical, rice; settings: 10 µM substrate, 50 µg ml^−1 protein, 37 °C, HPLC
T1 construct: made in house; host or cells: E. coli BL21 (DE3)
T1 sequence (Q10QA5 1-318): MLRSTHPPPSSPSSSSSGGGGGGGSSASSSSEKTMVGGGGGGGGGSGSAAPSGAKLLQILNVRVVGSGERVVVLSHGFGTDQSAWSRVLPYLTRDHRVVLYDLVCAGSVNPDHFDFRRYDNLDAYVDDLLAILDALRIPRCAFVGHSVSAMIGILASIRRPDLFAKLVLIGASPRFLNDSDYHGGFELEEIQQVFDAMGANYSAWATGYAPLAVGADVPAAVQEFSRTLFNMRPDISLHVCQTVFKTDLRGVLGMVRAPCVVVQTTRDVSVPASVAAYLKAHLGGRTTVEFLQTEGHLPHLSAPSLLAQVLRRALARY
Source text: Striga hermonthica ShHTL7 cDNA was used, GenBank accession KR013127, kindly provided by Tsuyoshi Ota, The University of Tokyo, Japan. Arabidopsis D14 (AtD14) cDNA, GenBank accession AY097402, was synthesized and cloned into pUC57 (GenScript). ShHTL7 and OsD14 cDNAs were amplified by RT-PCR using the primers shown in Supplementary Table S2, digested with BamHI and XhoI, and ligated into BamHI/XhoI-digested pGEX-6P-1 expression vector (GE Healthcare). Integrity of plasmids was confirmed by sequencing (KAUST Bioscience Core Lab). The plasmids were then transformed into E. coli BL21 (DE3) cells. The cells were grown in LB broth containing ampicillin ([…]), incubated at 37 °C until OD600 of 0.6 and induced with 0.1 mM isopropyl-β-D-thiogalactopyranoside at 16 °C for 16 h. Harvested cells were resuspended in lysis buffer: 50 mM Tris–HCl (pH 8.0), 200 mM NaCl, 0.5% Tween-20 and 2 mM dithiothreitol (DTT). After sonication on ice for 10 min, the lysate was centrifuged at 75 000 g for 30 min at 4 °C. Supernatant was allowed to bind to glutathione–sepharose beads (GE Healthcare) for 2 h at 4 °C, washed 3 times with buffer (50 mM Tris-HCl (pH 8.0), 200 mM NaCl, 2 mM DTT), and eluted by cleaving the GST moiety with PreScission™ Protease (GE Healthcare) at 4 °C overnight. Eluted protein was further purified by gel filtration using a HiLoad 16/60 Superdex200 prep grade column (GE Healthcare) on an AKTA prime system (GE Healthcare) in gel filtration buffer (10 mM HEPES pH 7.5, 50 mM KCl and 2 mM DTT). Protein eluted as a sharp single peak and purity was judged by 4–15% SDS-PAGE (Bio-Rad). Purified protein was concentrated using an Amicon 10K filter unit (Merck Millipore) and stored at −80 °C until use. A similar expression and purification protocol was followed for OsD14 protein, except that OsD14 was eluted from glutathione resins using 0.2 mM reduced glutathione (Sigma-Aldrich) without cutting the GST tag.
The hydrolysis of GR24 and MPs by ShHTL7/OsD14 was performed in a total volume of 0.5 ml of phosphate-buffered saline containing 10 µM of substrate. Purified ShHTL7/OsD14 was added at a concentration of 50 µg ml^−1 and incubated for the indicated time at 37 °C. After adding 1-indanol (10 µl of a 2.5 mg ml^−1 solution in methanol), as internal standard, solutions were filtered and transferred to HPLC vials. Hydrolysis of substrates was monitored by HPLC analysis using a Zorbax Eclipse Plus C18 column (3.5 µm, 2.1 × 150 mm), eluted by a gradient from 10% to 90% acetonitrile in water within 15 min, keeping the final condition for 4 min. […] Eluted compounds were detected using a diode array detector. Amounts of remaining substrates were determined by calculating corresponding peaks, in comparison with an internal standard.

[3] = Chemical stability in aqueous solution (UHPLC); format: physicochemical; settings: aqueous solution pH 6.8, 21 °C, 50 μg ml^−1, monitored at 24 h intervals up to 3 weeks
Method: Aqueous solutions of MPs (50 μg ml^−1; pH 6.8) were incubated at 21 °C in amber HPLC vials (adapted from [de Saint Germain et al., 2016]). For sample preparation, 50 μl of an acetone solution (1 mg ml^−1) was diluted to the final concentration with methanol (425 μl), water (500 μl) and 25 μl of 1-indanol (1.0 mg ml^−1 solution in acetone) as internal standard. […] Compounds eluted from the column were detected with a diode array detector. The relative quantity of remaining (non-degraded) product was determined by comparison with the internal standard. Stability was monitored at 24 h intervals up to 3 weeks.

SMILES	number of tillers per plant, d10 mutant ([1]; 2.5 μM, hydroponic culture, Mock four tillers per plant)	EC50 [1]	hydrolysis rate by OsD14 (rank order) [2]	stability in comparison with GR24 [3]	growth, senescence symptoms and biomass of rice seedlings ([1]; 2.5 μM)
CC1=CC(OC=C2C(=O)OC3c4ccccc4CC23)OC1=O (stereo not shown) [GR24, reference compound]	one	48.3 nM	highest hydrolysis rate with MP1, followed by MP7, GR24, and finally MP3	–	–
COC(=O)/C(=C/OC1C=C(C)C(=O)O1)c1ccc([N+](=O)[O-])cc1 (stereo not shown) [MP1, (E)-methyl 3-(4-methyl-5-oxo-2,5-dihydrofuran-2-yloxy)-2-(4-nitrophenyl)acrylate]	–	242 nM	highest hydrolysis rate with MP1, followed by MP7, GR24, and finally MP3	slightly less stable than GR24	–
COC(=O)/C(=C/OC1C=C(C)C(=O)O1)c1ccccc1 (stereo not shown) [MP3, (E)-methyl 3-(4-methyl-5-oxo-2,5-dihydrofuran-2-yloxy)-2-phenylacrylate]	–	2.98 nM	highest hydrolysis rate with MP1, followed by MP7, GR24, and finally MP3	more stable than GR24	stunted the growth and caused senescence symptoms; also recorded: growth retardation and senescence
COC(=O)/C(=C/OC1C=C(C)C(=O)O1)c1ccc(Cl)cc1 (stereo not shown) [MP7]	–	25.4 nM	highest hydrolysis rate with MP1, followed by MP7, GR24, and finally MP3	more stable than GR24	–
